In patent US10744205B2, “Antibody drug conjugates of kinesin spindel protein (KSP) inhibitors with anti-CD123-antibodies” (Bayer Pharma Aktiengesellschaft, priority 2015, dated 2020):

Columns and labels:
[1] = test system: NCI-H292: human mucoepidermoid lung carcinoma cells; assay: Cytotoxicity of metabolites, MTT assay, NCI-H292; assay type: cell-based; details: growth inhibition, 96 h incubation
Experimental: The analysis of the cytotoxic effects of the anti-CD123 ADCs and the corresponding metabolites was carried out with various cell lines:
NCI-H292: human mucoepidermoid lung carcinoma cells, ATCC-CRL-1848, standard medium: RPMI 1640 (Biochrom; # FG1215, stab. glutamine)+10% FCS (Biochrom; # S0415).
The cells were cultivated by the standard method as stated by the American Tissue Culture Collection (ATCC) or the Leibniz-Institut DSMZ-Deutsche Sammlung von Mikroorganismen und Zellkulturen GmbH (DSMZ) for the cell lines in question.
The cells were cultivated according to the standard method using the growth media listed under C-1. The test is carried out by detaching the cells with a solution of Accutase in PBS (Biochrom AG # L2143), pelleting, resuspending in culture medium, counting and sowing into a 96-well culture plate with white bottom (Costar #3610) (NCI H292: 2500 cells/well; MOLM-13: 2000 cells/well; THP-1: 8000 cells/well; KG-1: 5000 cells/well in a total volume of 100 μl). The cells were then incubated in an incubator at 37° C. and 5% carbon dioxide. After 48 h, the medium was replaced.
The antibody drug conjugates or the metabolites in 10 μl of culture medium in concentrations from 10^−5M to 10^−13M were then pipetted to the cells (in triplicate), and the assay was then incubated in an incubator at 37° C. and 5% carbon dioxide. […] To this end, the MTT reagent was incubated with the cells for 4 h, followed by lysis of the cells overnight by addition of the detergent. The dye formed was detected at 570 nm (Infinite M1000 pro, Tecan). The measured data were used to calculate the IC50 of the growth inhibition using the DRC (dose response curve).
The proliferation of cells which were not treated with test substance but were otherwise identically treated was defined as the 100% figure.
Table 2 below lists the IC50 values of representative working examples from the assay described and the corresponding cytotoxicity data (MTT assay).

[2] = test system: KPL4; assay: Cytotoxicity of metabolites, MTT assay, KPL4; assay type: cell-based
[3] = molecular target: T1, motor domain of the human kinesin spindle protein KSP/Eg5 (Homo sapiens, UniProt P52732); assay: Inhibition of the kinesin spindle protein KSP/Eg5 (ATPase activity, malachite green); assay type: biochemical; details: 10 nM KSP/Eg5, microtubuli, 500 μM ATP, 2 h at RT
T1 construct: The motor domain of the human kinesin spindle protein KSP/Eg5; purchased tebu-bio/Cytoskeleton Inc 027EG01-XL
T1 sequence (P52732 18-359 limits assumed): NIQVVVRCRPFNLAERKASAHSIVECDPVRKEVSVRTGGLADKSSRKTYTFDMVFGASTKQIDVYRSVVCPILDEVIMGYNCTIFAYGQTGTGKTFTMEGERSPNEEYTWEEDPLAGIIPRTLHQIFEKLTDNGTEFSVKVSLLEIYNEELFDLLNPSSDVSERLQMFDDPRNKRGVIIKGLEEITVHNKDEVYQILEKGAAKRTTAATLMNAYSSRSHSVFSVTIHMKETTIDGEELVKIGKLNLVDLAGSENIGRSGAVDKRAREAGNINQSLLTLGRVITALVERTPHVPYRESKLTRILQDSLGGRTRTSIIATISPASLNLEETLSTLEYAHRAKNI
Experimental: C-1b Determination of the Inhibition of the Kinesin Spindle Protein KSP/Eg5 by Selected Examples
The motor domain of the human kinesin spindle protein KSP/Eg5 (tebu-bio/Cytoskeleton Inc, No. 027EG01-XL) was incubated in a concentration of 10 nM with microtubuli (bovine or porcine, tebu-bio/Cytoskeleton Inc) stabilized with 50 μg/ml taxol (Sigma No. T7191-5MG) for 5 min at RT in 15 mM PIPES, pH 6.8 (5 mM MgCl2 and 10 mM DTT, Sigma). […] Incubation was at RT for 2 h. ATPase activity was detected by detecting the inorganic phosphate formed using malachite green (Biomol). […] The positive controls used were monastrol (Sigma, M8515-1 mg) and ispinesib (AdooQ Bioscience A10486). The individual data of the dose-activity curve are eight-fold determinations. The IC50 values are means of two independent experiments.

[4] = Cell permeability, flux assay using Caco-2 cells; assay type: in vitro ADME; details: human
[5] = test system: Caco-2 cells; assay: Cell permeability, flux assay using Caco-2 cells; assay type: in vitro ADME; details: Caco-2, B to A, 2 hours

Row | Compound | IC50 ([1]; Homo sapiens, NCI-H292, 96 h) | IC50 ([2]; KPL4, growth inhibition) | IC50 [1] | IC50 ([2]; growth inhibition) | further results
1 | CC(C)(C)[C@H](c1cc(-c2cc(F)ccc2F)cn1Cc1ccccc1)N(CC[C@H](N)C(=O)NCCNC(=O)CN1C(=O)CC(SC[C@H](N)C(=O)O)C1=O)C(=O)CO (stereo partly drawn) [Example M1, S-[1-(2-{[2-({(2S)-2-Amino-4-[{(1R)-1-[1-benzyl-4-(2,5-difluorophenyl)-1H-pyrrol-2-yl]-2,2-dimethylpropyl}(glycoloyl)amino]butanoyl}amino)ethyl]amino}-2-oxoethyl)-2,5-dioxopyrrolidin-3-yl]-L-cysteine/trifluoroacetic acid (1:1)] | ≥ 0.5 µM | ≥ 0.5 µM | – | – | –
2 | CC(C)(C)[C@H](c1cc(-c2cc(F)ccc2F)cn1Cc1ccccc1)N(CCCN)C(=O)CSC[C@H](NC(=O)CCOCCOCCOCCOCCNC(=O)CNC(=O)[C@H](CC(=O)O)SC[C@H](N)C(=O)O)C(=O)O.O=C(O)C(F)(F)F.O=C(O)C(F)(F)F [Example M21, (2R,24S,27R)-27-Amino-2-[({2-[(3-aminopropyl){(1R)-1-[1-benzyl-4-(2,5-difluorophenyl)-1H-pyrrol-2-yl]-2,2-dimethylpropyl}amino]-2-oxoethyl}sulphanyl)methyl]-24-(carboxymethyl)-4,20,23-trioxo-7,10,13,16-tetraoxa-25-thia-3,19,22-triazaoctacosane-1,28-dioic acid trifluoroacetic acid (1:2)] | – | – | – | – | IC50 [3]: 0.00231 µM; Papp B→A at 2 h ([4]; Caco-2, B to A, 2 hours): 0.05 ×10⁻⁶ cm/s; efflux ratio at 2 h ([4]; Caco-2, ratio of Papp (B-A) to Papp (A-B)): 1.5
3 | CC(C)(C)[C@H](c1cc(-c2cc(F)ccc2F)cn1Cc1ccccc1)N(CC[C@H](N)C(=O)NCCC(=O)N[C@@H](CCC(=O)O)C(=O)O)C(=O)CO [Example M23, N-{(2S)-2-Amino-4-[{(1R)-1-[1-benzyl-4-(2,5-difluorophenyl)-1H-pyrrol-2-yl]-2,2-dimethylpropyl}(glycoloyl)amino]butanoyl}-beta-alanyl-L-glutamic acid/trifluoroacetic acid (1:1)] | ≥ 0.5 µM | ≥ 0.5 µM | – | – | –
4 | CC(C)(C)[C@H](c1cc(-c2cc(F)ccc2F)cn1Cc1ccccc1)N(CC[C@H](N)C(=O)NCCC(=O)N[C@H](CCC(=O)O)C(=O)O)C(=O)CO [Example M24, N-{(2S)-2-Amino-4-[{(1R)-1-[1-benzyl-4-(2,5-difluorophenyl)-1H-pyrrol-2-yl]-2,2-dimethylpropyl}(glycoloyl)amino]butanoyl}-beta-alanyl-D-glutamic acid/trifluoroacetic acid (1:1)] | – | ≥ 0.5 µM | – | – | –
5 | (1R,4R,27R,33R)-1-Amino-32-(3-aminopropyl)-33-[1-benzyl-4-(2,5-difluorophenyl)-1H-pyrrol-2-yl]-34,34-dimethyl-6,9,25,31-tetraoxo-13,16,19,22-tetraoxa-3,29-dithia-7,10,26,32-tetraazapentatriacontane-1,4,27-tricarboxylic acid/trifluoroacetic acid (1:2) [Example M20] | – | – | 0.149 µM | 0.213 µM | –
6 | N-{(2S)-2-Amino-4-[{(1R)-1-[1-benzyl-4-(2,5-difluorophenyl)-1H-pyrrol-2-yl]-2,2-dimethyl propyl}(glycoloyl)amino]butanoyl}-L-glutamic acid/trifluoroacetic acid (1:1) [Example M25] | – | – | ≥ 0.5 µM | ≥ 0.5 µM | Papp (B-A) [5]: 0.81 ×10⁻⁶ cm/s
